Source: patent US20100178279A1, “Beta-Glucan Enhances Hematopoietic Progenitor Cells Engraftment and Promotes Recovery from Chemotoxicity” (Cornell University, priority 2009, published 2010)

What was measured:
[1] = test system: B6D2F1 mice; experiment: Paclitaxel-induced leukopenic mouse model, serial complete blood counts; assay type: in vivo
Experimental: Certified Rodent Diet #5053 (Lab Diet) was used. […] Mice were weighed each day. […] Sacrifice was performed by the CO2 method. […]
To determine the dose of Ptx required for induction of acute hematotoxicity that also permitted spontaneous recovery, fractionated dosing at 10 to 30 mg/kg was given 3 times every other day to groups of mice. After doses greater than 15 mg/kg were found effective, we compared cumulative doses of 60 and 90 mg/kg to untreated mice (n=4 each group). Serial CBCs were obtained from each mouse. Variation was evaluated by one-way ANCOVA and within mouse correlation was included as the covariate. Pair-wise differences were evaluated by Tukey's posttest. Treatment group variation was assessed by two-way ANOVA over the interval followed by between-group comparisons using Bonferroni posttests.

[2] = test system: B6D2F1 mice; experiment: Peripheral blood cell recovery (complete blood cell count) after Ptx treatment
Experimental: Mice: B6D2F1 mice female, 6-8 weeks old were purchased from Jackson Laboratory, and were maintained in a pathogen-free facility at Memorial Sloan-Kettering Cancer Center (MSKCC, New York, N.Y.) with access to fresh water and food ad libitum. Certified Rodent Diet #5053 (Lab Diet) was used. All animal experiments were approved by the MSKCC Animal Care Committee. Treatments: Ptx was intraperitoneally injected (i.p) at 30 mg/kg/day over […] with cumulative dose of 90-120 mg/kg to mice. Neupogen (G-CSF) was given i.v. at 80 microg/kg at 24 hrs after the last dose of Ptx. […] Mice were weighed each day. Blood was taken from the tail vein for complete blood cell (CBC) counts. Sacrifice was performed by the CO2 method.
Complete Blood Cell Count: Approximately 20 microL of blood was taken from the tail vein after warming, for assessment of CBC by automated differential analysis using the Hemavet instrument after instrument standardization.
Statistical Analysis: Data are presented as mean percentage ±SD or mean counts ±SD. To identify the appropriate dose of Ptx, ANCOVA was used to examine significance of variation in average cell counts or percentage of change from baseline across all days for the cell type of interest in a treatment group and possible within-mouse correlation was adjusted by including mouse ID as a covariate. If overall significance by ANCOVA was shown, Tukey's method was used to determine between-day significance. To assess significance of variation across dose groups (including untreated) over the treatment interval, two-way ANOVA was used and then Bonferroni method was used to adjust for between-group multiple comparisons. In the studies of blood cell recovery, the decrease in cell count was calculated as compared to the corresponding baseline during the treatment for each mouse. The averages of the group decreases across different treatment groups were compared using two-way ANOVA to determine significance. Two sample t-tests were used to compare the difference in average percentage change at a given time point between any two treatment groups. Tukey's or Bonferroni method was used to adjust p-values for multiple comparisons where appropriate. The analyses were carried out using GraphPad Prism software version 5.01. Additional information is provided in the text.
30 mg/kg/day Ptx was given over 3 consecutive days (90 mg/kg cumulative dose) to each group. […] The Ptx+G-CSF group received one dose of intravenous G-CSF (80 ug/kg), 24 hrs after the last Ptx dose. Changes in absolute numbers of leukocytes (white blood cell count) from baseline were evaluated from post-day 1 to post-day 8 after chemotherapy. For each mouse, percent change in counts from baseline was calculated. Change from baseline across days within a treatment group was assessed by ANCOVA and within-mouse correlation was included as appropriate. Paired t-tests were used to compare any two time-points. Differences among treatment groups across the experimental period were assessed by two-way

[3] = test system: Gr-1+ granulocytes/monocytes; experiment: Flow cytometric oxidative burst (ROS) assay on peripheral blood ex vivo after Ptx; assay type: in vivo, mouse
Experimental: Flow Cytometric Oxidative Burst Assay: Peripheral blood was obtained by retro orbital bleeding; about 400 microL blood were collected into heparinized tubes. The respiratory burst assay was performed as described with modifications. Briefly, 100 microL blood aliquots were added to each tube, wash buffer or stimuli (opsonized E. coli, fMLP (N-formylmethionyl-leucyl-phenylalanine) were added at 20 microL. Tubes were incubated in a water bath at 37° C. for 10 mins, then 20 microL of dihydrorhodamine (DHR-123) was added and tubes were vortexed, and then incubated for another 10 mins. Red blood cells were lysed and removed after washing once. R-PE conjugated rat anti-mouse Ly-6G and Ly-6C (Gr-1, BD Biosciences) antibody was added in the presence of Mouse BD Fc Block (purified anti-mouse CD16/CD32 monoclonal antibody, 2.4G2, BD Biosciences) at 1 μg/million cells, and incubated at room temperature in the dark for 15 mins. Cells were washed; supernatants removed and 200 μL of DNA staining solution was added. The samples were analyzed by flow cytometer (FACSCalibur) using CellQuest. The initial gate was set with Gr-1 to identify granulocytes/monocytes; the percentage of responding cells was then analyzed with FlowJo software.
After brief exposure of whole blood to opsonized E. coli and the chemotactic peptide N-formyl-Met-Leu-Phe (fMLP) ex vivo, fluorescence of ROS positive cells was detected by the oxidation of the dihydrorhodamine substrate. Blood samples were collected from each group 4 days after the last dose of Ptx and again on post-day 11. […] Post-day 4 was 3 days after G-CSF injection for the Ptx+G-CSF group. The ROS responses of normal, untreated mice were also studied.

[4] = Ptx 90 mg/kg, MBG 6 mg/kg/day oral or G-CSF 80 ug/kg i.v. once

## CC(=O)O[C@H]1C(=O)[C@@]2(C)[C@H]([C@H](OC(=O)c3ccccc3)[C@]3(O)C[C@H](OC(=O)[C@H](O)[C@@H](NC(=O)c4ccccc4)c4ccccc4)C(C)=C1C3(C)C)[C@]1(OC(C)=O)CO[C@@H]1C[C@@H]2O [Ptx, Paclitaxel]
[1]; cumulative Ptx dose 60 mg/kg
  Leukocyte numbers compared to untreated mice: fewer leukocytes
[1]; cumulative Ptx dose 60 mg/kg, ANCOVA, no pair-wise comparisons significant
  Neutrophil counts across all days: overall drop in neutrophil counts across all days was significant
[1]; cumulative Ptx dose 90 mg/kg
  Leukocyte numbers compared to untreated mice: lower leukocyte numbers on days 3, 4, and 5
  Lymphocyte numbers compared to the untreated group: lower over days 3, 4, and 5
  Lymphocytes compared to baseline: lower on day 8 compared to baseline
  Neutrophil counts compared to baseline: counts were significantly lower on days 4 and 5 compared to baseline
[1]; cumulative Ptx dose 90 mg/kg (higher dose)
  Neutrophils compared to the untreated group: more reduced
[1]; cumulative Ptx dose 90 mg/kg, one-way ANCOVA
  Changes in leukocyte numbers within group: produced significant changes in leukocyte numbers
[1]; given 3 times every other day
  Fractionated Ptx dose found effective for induction of acute hematotoxicity: greater than 15 mg/kg
[2]; [4]
  Leukocyte levels by post-day 5 compared to earlier post-days: Counts improved by post-day 5 and 8 compared to post-day 1
  Lymphocyte recovery time course relative to baseline: baseline levels were not achieved, even by post-day 8
  Neutrophil recovery time course: Baseline levels were achieved by post-day 8
[2]; early recovery period
  Decrease in neutrophil level on post-day 5, between groups: greater
[2]; mouse, in vivo
  Duration of suppression of peripheral blood white blood cell counts below baseline levels: more than 8 days
  Monocyte counts below baseline at lowest point: 77.6±13%
[3]; mouse, in vivo
  Unstimulated ROS production on post-day 11 compared to post-day 4: unchanged
[3]; p<0.0001
  ROS response to E. coli on post-day 11 compared to post-day 4: increased
  ROS response to fMLP on post-day 11 compared to post-day 4: decreased
[3]; post-day 4
  ROS response to E. coli compared to untreated mice: lower compared to untreated mice

B1: G-CSF: Neupogen (G-CSF) from Amgen; recombinant human G-CSF (protein, UniProt P09919 31-207, looked up)
Granulocyte …: TPLGPASSLPQSFLLKCLEQVRKIQGDGAALQEKLVSECATYKLCHPEELVLLGHSLGIPWAPLSSCPSQALQLAGCLSQLHSGLFLYQGLLQALEGISPELGPTLDTLQLDVADFATTIWQQMEELGMAPALQPTQGAMPAFASAFQRRAGGVLVASHLQSFLEVSYRVLRHLAQP
modifications: filgrastim, N-terminal methionine
[2]; Ptx 90 mg/kg, 24 hrs after G-CSF injection
  Decline in leukocytes on post-day 2: not observed
[2]; mouse, in vivo
  Effect on Ptx-induced increase of platelet numbers: also not affected
